For this assay, the target named is T1, P-glycoprotein (P-gp/ABCB1) (Homo sapiens, UniProt P08183).
T1 construct: full-length human P-gp; MDR1 baculovirus in High-Five insect cell total membranes (ATPase); transfected MDR19-HEK293 cells (calcein efflux)
The assay can be described thus: vanadate-sensitive ATPase activity, endpoint inorganic phosphate assay, insect cell membranes. Format: biochemical. The text has this: vanadate-sensitive ATPase activity, endpoint inorganic phosphate assay, insect cell membranes on P-glycoprotein (P-gp/ABCB1) | half maximal effective concentration (EC50) value

For one compound, EC50 results are on record in PMC8326665, “Branebrutinib (BMS-986195), a Bruton’s Tyrosine Kinase Inhibitor, Resensitizes P-Glycoprotein-Overexpressing Multidrug-Resistant Cancer Cells to Chemotherapeutic Agents” (Frontiers in Cell and Developmental Biology, 2021).

By EC50 is commonly meant the concentration giving half of the maximal effect. Higher therefore signals lower potency in that assay.

T1 sequence (P08183 whole entry): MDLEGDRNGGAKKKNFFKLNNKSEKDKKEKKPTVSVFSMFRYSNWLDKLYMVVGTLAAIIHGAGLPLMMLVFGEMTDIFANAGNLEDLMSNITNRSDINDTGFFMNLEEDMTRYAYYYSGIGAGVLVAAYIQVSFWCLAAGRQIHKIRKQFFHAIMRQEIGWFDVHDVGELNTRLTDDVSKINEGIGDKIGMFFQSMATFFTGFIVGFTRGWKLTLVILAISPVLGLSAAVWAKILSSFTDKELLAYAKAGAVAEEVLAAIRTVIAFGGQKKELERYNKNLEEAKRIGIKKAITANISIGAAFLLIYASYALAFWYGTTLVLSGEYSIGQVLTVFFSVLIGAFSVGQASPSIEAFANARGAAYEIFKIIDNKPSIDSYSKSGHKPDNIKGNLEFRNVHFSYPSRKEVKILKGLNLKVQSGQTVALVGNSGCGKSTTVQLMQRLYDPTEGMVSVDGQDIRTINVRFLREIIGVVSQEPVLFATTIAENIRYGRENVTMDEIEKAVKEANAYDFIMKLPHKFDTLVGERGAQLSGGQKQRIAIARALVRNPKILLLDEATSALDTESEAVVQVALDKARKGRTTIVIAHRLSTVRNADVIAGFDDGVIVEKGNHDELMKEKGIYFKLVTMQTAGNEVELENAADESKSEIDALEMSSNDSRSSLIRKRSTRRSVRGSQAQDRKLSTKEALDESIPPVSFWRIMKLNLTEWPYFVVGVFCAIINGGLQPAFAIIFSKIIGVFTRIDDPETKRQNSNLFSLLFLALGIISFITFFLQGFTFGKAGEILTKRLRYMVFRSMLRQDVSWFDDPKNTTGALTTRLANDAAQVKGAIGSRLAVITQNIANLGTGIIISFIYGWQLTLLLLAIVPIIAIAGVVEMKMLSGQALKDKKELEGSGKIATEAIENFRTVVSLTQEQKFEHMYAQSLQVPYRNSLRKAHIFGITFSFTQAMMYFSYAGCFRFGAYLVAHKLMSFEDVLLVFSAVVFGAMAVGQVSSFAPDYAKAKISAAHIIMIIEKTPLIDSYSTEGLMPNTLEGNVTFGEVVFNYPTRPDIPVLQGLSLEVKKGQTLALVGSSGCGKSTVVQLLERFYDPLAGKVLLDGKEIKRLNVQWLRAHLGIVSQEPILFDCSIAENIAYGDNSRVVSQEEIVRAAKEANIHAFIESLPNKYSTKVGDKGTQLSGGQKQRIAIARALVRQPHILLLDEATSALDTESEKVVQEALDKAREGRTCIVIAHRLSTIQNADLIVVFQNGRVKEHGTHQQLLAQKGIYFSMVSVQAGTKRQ

`CC#CC(=O)N[C@H]1CCCN(c2c(F)cc(C(N)=O)c3[nH]c(C)c(C)c23)C1` [branebrutinib] had an EC50 of around 4.5 µM.
